In patent US11279733B2, “Peptide antibiotics” (priority 2017, dated 2022):
Converted amounts (≈) assume the structure as drawn. Starred links: 1 amine or outer side, 2 acyl side, 3 side chain; linkers in the order of their positions; H or OH if unused. Positions of bridges follow the written chain, without caps; N, C: chain ends. Non-standard residues stand in square brackets, D forms with d. Residues, ends and D or L forms follow the SMILES beside them. *: point of attachment. X10 = CCCCCCC[C@@H](O)CC(=O)N[C@H](CCN)C(=O)NN(CCN[*:2])C(=O)[*:1]; Decanoyl(3R-OH) = CCCCCCC[C@@H](O)CC(=O)*; Decanoyl = CCCCCCCCCC(=O)*; dDab = NCC[C@@H](N)C(=O)O; dDap = NC[C@@H](N)C(=O)O; Dab = NCC[C@H](N)C(=O)O

Experiments:
[1] = system: P. aeruginosa GN_105, PmxR; settings: GN 105, PmxR
In short: (§1)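 Mid-log cultures grown in Mueller Hinton broth at 37° C were tested by 2-fold broth microdilution at 5×10^5 CFU/mL final. Compounds were dissolved in water and tested over a final range of 32 to 0.015 μg/mL.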

[2] = system: K. pneumoniae GN_102 PmxR; settings: GN 102 PmxR
In short: as §1

[3] = system: K. pneumoniae ATCC BAA-2146, NDM-1 pos; settings: ATCC BAA-2146
In short: as §1

P. aeruginosa ATCC 27853 = settings: ATCC 27853
In short: as §1

A. baumannii ATCC 19606 = settings: ATCC 19606
In short: as §1

[4] = system: P. aeruginosa GN_043, PmxR; settings: for MIC, P. aeruginosa FADDI-PA070, PmxR: strain name as in Table 11
In short: as §1

[5] = system: S. aureus ATCC 25923, MSSA; settings: ATCC 25923
In short: as §1

A. baumannii GN_093 PmxR = settings: GN 093 PmxR
In short: as §1

[6] = system: K. pneumoniae ATCC 700603, MDR; settings: ATCC 700603
In short: as §1

K. pneumoniae ATCC 13883 = settings: ATCC 13883
In short: as §1

E. coli ATCC 25922 = settings: ATCC 25922
In short: as §1

[7] = system: K. pneumoniae GN_106, PmxR; settings: GN 106, PmxR
In short: as §1

in vitro = settings: human
In short: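 Fluorescence read-out (excitation 560, emission 590) after a 2 h, 37 °C incubation with 5 μM resazurin, following 24 h compound treatment of cells plated at 4000 per well. CC50 values come from fitting dose–response curves of growth inhibition.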

| Structure (SMILES) | MIC P. aeruginosa GN_105, PmxR [1] | MIC K. pneumoniae GN_102 PmxR [2] | MIC K. pneumoniae ATCC BAA-2146, NDM-1 pos [3] | MIC P. aeruginosa ATCC 27853 (P. aeruginosa ATCC 27853) | MIC A. baumannii ATCC 19606 (A. baumannii ATCC 19606) | MIC P. aeruginosa GN_043, PmxR [4] | MIC S. aureus ATCC 25923, MSSA [5] | MIC A. baumannii GN_093 PmxR (A. baumannii GN_093 PmxR) | MIC K. pneumoniae ATCC 700603, MDR [6] | MIC K. pneumoniae ATCC 13883 (K. pneumoniae ATCC 13883) | MIC E. coli ATCC 25922 (E. coli ATCC 25922) | MIC K. pneumoniae GN_106, PmxR [7] | CC50 at 24 h (in vitro) | MIC P. aeruginosa PA9704, PmxR [1] | MIC K. pneumoniae Cl Koprana 10065 0661:1 PmxR [2] | MIC, P. aeruginosa FADDI-PA070, PmxR [4] | MIC A. baumannii Cl Ptyela 10073 4512:2, PmxR (A. baumannii GN_093 PmxR) | MIC K. pneumoniae Cl 183-16357-20352, PmxR [7] |
| --- | --- | --- | --- | --- | --- | --- | --- | --- | --- | --- | --- | --- | --- | --- | --- | --- | --- | --- |
| CCCCCCCCCC(=O)N[C@H](CN)C(=O)N[C@H]1CCNC(=O)[C@H](CC(C)C)NC(=O)[C@H](CCN)NC(=O)[C@H](CCN)NC(=O)[C@H](CC(C)C)NC(=O)[C@@H](Cc2ccccc2)NC(=O)[C@H](CCN)NC1=O [compound 9192, nC9CO-D-Dap-cyc[L-Dab-L-Dab-D-Phe-L-Leu-L-Dab-L-Dab-L-Leu]] (Decanoyl-[dDap][Dab][Dab][dF]L[Dab][Dab]L; lactam 2-C) | 2 µg/mL (≈ 1.97 µM) | 8 µg/mL (≈ 7.89 µM) | 8 µg/mL (≈ 7.89 µM) | 4 µg/mL (≈ 3.94 µM) | 32 µg/mL (≈ 31.5 µM) | 4 µg/mL (≈ 3.94 µM) | 8 µg/mL (≈ 7.89 µM) | 4 µg/mL (≈ 3.94 µM) | 8 µg/mL (≈ 7.89 µM) | 8 µg/mL (≈ 7.89 µM) | 2 µg/mL (≈ 1.97 µM) | 8 µg/mL (≈ 7.89 µM) | 224 µM | – | – | – | – | – |
| CCCCCCC[C@@H](O)CC(=O)N[C@H](CCN)C(=O)N[C@H]1CCNC(=O)[C@H](CC(C)C)NC(=O)[C@H](CCN)NC(=O)[C@H](CCN)NC(=O)[C@@H](Cc2ccccc2)NC(=O)[C@H](CC(C)C)NC(=O)[C@H](CCN)NC1=O [compound 9194, 3(R)-OH-nC9CO-D-Dab-cyc[L-Dab-L-Dab-L-Leu-D-Phe-L-Dab-L-Dab-L-Leu]] ({Decanoyl(3R-OH)}-[dDab][Dab][Dab]L[dF][Dab][Dab]L; lactam 2-C) | >32 µg/mL | >32 µg/mL | >32 µg/mL | 32 µg/mL (≈ 30.6 µM) | >32 µg/mL | >32 µg/mL | 32 µg/mL (≈ 30.6 µM) | >32 µg/mL | >32 µg/mL | >32 µg/mL | 32 µg/mL (≈ 30.6 µM) | >32 µg/mL | > 300 µM | – | – | – | – | – |
| CCCCCCC[C@@H](O)CC(=O)N[C@H](CCN)C(=O)N[C@H]1CCNC(=O)N(CC(C)C)NC(=O)[C@H](CCN)NC(=O)[C@H](CCN)NC(=O)[C@H](CC(C)C)NC(=O)[C@@H](Cc2ccccc2)NC(=O)[C@@H](CCN)NC1=O [compound 9416, 3(R)OH-nC9CO-D-Dab-cyc[L-Dab-L-Dab-D-Phe-L-Leu-L-Dab-L-Dab-(aza-Leu)]] | – | – | 16 µg/mL (≈ 15.3 µM) | 4 µg/mL (≈ 3.83 µM) | >32 µg/mL | – | 32 µg/mL (≈ 30.6 µM) | – | 16 µg/mL (≈ 15.3 µM) | 16 µg/mL (≈ 15.3 µM) | 16 µg/mL (≈ 15.3 µM) | – | > 300 µM | >32 µg/mL | >32 µg/mL | >32 µg/mL | >32 µg/mL | >32 µg/mL |
| CCCCCCC[C@@H](O)CC(=O)N[C@H](CCN)C(=O)NN1CCNC(=O)[C@H](CC(C)C)NC(=O)[C@H](CCN)NC(=O)[C@H](CCN)NC(=O)[C@H](CC(C)C)NC(=O)[C@@H](Cc2ccccc2)NC(=O)[C@H](CCN)NC1=O [compound 9417, 3(R)OH-nC9CO-D-Dab-cyc[(aza-Dab)-L-Dab-D-Phe-L-Leu-L-Dab-L-Dab-L-Leu]] ([Dab][dF]L[Dab][Dab]L; linker N-C via X10) | – | – | >32 µg/mL | 16 µg/mL (≈ 15.3 µM) | >32 µg/mL | – | 8 µg/mL (≈ 7.65 µM) | – | >32 µg/mL | >32 µg/mL | >32 µg/mL | – | > 300 µM | >32 µg/mL | >32 µg/mL | >32 µg/mL | >32 µg/mL | >32 µg/mL |
